Assay results taken from US10449223B2, “Use of dehydroeburicoic acid from Antrodia camphorata in the treatment or prevention of diabetes and hyperlipidemia” (priority 2016, dated 2019).

Legend:
GLUT4 [1] = experiment: GLUT4 protein expression in C2C12 myotube cells (Western blot); format: cell-based
Protocol: (§1) C2C12 skeletal myoblasts (ATCC, CRL-1772) were maintained in growth media consisting of Dulbecco's modified Eagle's medium (DMEM) (Gibco BRL) supplemented with 10% fetal bovine serum (FBS) (Hyclone) and 100 U/mL penicillin/100 μg/mL streptomycin (Gibco BRL) and split 1:4 using 0.05% trypsin when 80% confluent. Myoblasts were diluted and placed in a 9 cm dish. Cells were cultured to achieve 80-90% confluency, and growth medium was changed as 2% FBS/DMEM every 24 h for 5-7 days.
(§2) Determination of GLUT4 and phospho-Akt (Ser^473)/Total Akt Proteins in Vitro: Differentiated C2C12 cells were serum starved in DMEM/BSA (2 h at 37° C.) prior to incubation either with test compounds (TT at 1, 5, 10, and 25 μg/mL) or with vehicle (DMSO containing saline, final concentration of DMSO=0.2%) for 30 min or with 100 nM insulin for 25 min.
(§3) Following treatment, cells were washed three times with ice-cold PBS and separated into two portions. A portion of the cells was subsequently lysed in RIPA buffer (50 mM Tris-HCl, pH 8, 150 mM NaCl, 1% NP-40, 0.5% sodium deoxycholate, 0.1% SDS) supplemented with complete protease inhibitor cocktail (Roche) and phosphatase inhibitors and then centrifuged at 20000 g for […].
(§4) Supernatant protein was collected and stored at −20° C. Another portion of cells was homogenized with buffer (250 mmol/L sucrose, 50 mmol/L Tris, and 0.2 mmol/L edetic acid, pH 7.4) at 4° C., as previously described. The homogenates were centrifuged at 9000 g for 10 min (4° C.). The pellet was suspended with 0.5 mL of homogenization buffer and then centrifuged, repeated three times. The three supernatants were collected, mixed, and centrifuged at 190000 g for 60 min (4° C.). The pellet was resuspended with 0.2 mL of homogenization buffer, stored at −20° C., and performed within membrane.
(§5) Protein concentration was determined via BCA assay (Pierce). Equal amounts of protein were then diluted four times in SDS sample buffer and subjected to SDS-PAGE and were detected by Western blotting with antibodies specific for Akt, phosph-Akt Ser^473, and GLUT4. The density blotting was analyzed using Alpha Easy FCsoftware (Alpha Innotech Corp., Randburg, South Africa).

Akt = experiment: phospho-Akt (Ser473)/total Akt in C2C12 myotube cells (Western blot); format: cell-based
Protocol: as §1, §2, §3
as §4, with “The pellet was resuspended with 0.2 mL of homogenization buffer, stored at −20° C., and performed within membrane.” left out
as §5

[2] = test system: STZ-induced diabetic mice; experiment: Tissue weight, body weight and food intake in STZ-induced diabetic mice; format: in vivo, C57BL/6J mice; conditions: 28 days
[3] = test system: STZ-induced diabetic mice; experiment: Histology of epididymal WAT and liver tissue in STZ-induced diabetic mice; format: in vivo, C57BL/6J mice; conditions: 28 days
Description: Parts of EWAT and liver tissue specimens were investigated as previously described.^31,32 Microscopic images were taken using a microscope (Olympus BX51, BX51, Olympus, Tokyo, Japan).

PEPCK = experiment: Semiquantitative RT-PCR, liver tissue: PEPCK mRNA; format: in vivo, C57BL/6J mice; conditions: STZ-induced diabetic mice, 28 days, relative to CON group (so in the source)
Protocol: (§6) Total RNA from liver tissue was isolated with a Trizol Reagent (Molecular Research Center, Inc., Cincinnati, Ohio) according to the manufacturer's directions. The integrity of the extracted total RNA was examined by 2% agarose gel electrophoresis, and the RNA concentration was determined by the ultraviolet (UV) light absorbency at 260 nm and 280 nm (Spectrophotometer U-2800A, Hitachi). Total RNA (1 μg) was reverse transcribed to cDNA in a reaction mixture containing buffer, and 5 μL Moloney murine leukemia virus reverse transcriptase (Epicentre, Madison, Wis., USA). The polymerase chain reaction (PCR) was performed in a final 25 μL containing 1 U Blend Taq-Plus (TOYOBO, Japan), 1 μL of the RT first-strand cDNA product, 10 μM of each forward (F) and reverse (R) primer, 75 mM Tris-HCl (pH 8.3) containing 1 mg/L Tween 20, 2.5 mM dNTP, and 2 mM MgCl2. The products were run on 2% agarose gels and stained with ethidium bromide.

G6 Pase = experiment: Semiquantitative RT-PCR, liver tissue: G6 Pase mRNA; format: in vivo, C57BL/6J mice; conditions: STZ-induced diabetic mice, 28 days, relative to CON group (so in the source)
Protocol: as §6

SREBP1c = experiment: Semiquantitative RT-PCR, liver tissue: SREBP1c mRNA; format: in vivo, C57BL/6J mice; conditions: STZ-induced diabetic mice, 28 days, relative to CON group (so in the source)
Protocol: as §6

DGAT2 = experiment: Semiquantitative RT-PCR, liver tissue: DGAT2 mRNA; format: in vivo, C57BL/6J mice; conditions: STZ-induced diabetic mice, 28 days, relative to CON group (so in the source)
Protocol: as §6

PPARα [4] = experiment: Semiquantitative RT-PCR, liver tissue: PPARα mRNA; format: in vivo, C57BL/6J mice; conditions: STZ-induced diabetic mice, 28 days
Protocol: as §6

CPT1a = experiment: Semiquantitative RT-PCR, liver tissue: CPT1a mRNA; format: in vivo, C57BL/6J mice; conditions: STZ-induced diabetic mice; TT oral (10, 20, 40 mg/kg/day groups, dose not given)
Protocol: as §6

SREBP2 = experiment: Semiquantitative RT-PCR, liver tissue: SREBP2 mRNA; format: in vivo, C57BL/6J mice; conditions: STZ-induced diabetic mice; TT oral (10, 20, 40 mg/kg/day groups, dose not given)
Protocol: as §6

PPARα [5] = experiment: Western blotting: PPARα in liver of mice; conditions: STZ-induced diabetic mice, 28 days
Protocol: (§7) The study protocol was performed as previously described.^28 Diabetes was induced by intraperitoneal injection of streptozotocin (Sigma Chemical, St. Louis, Mo., USA) for 5 consecutive days. The dosage of STZ was 55 mg/kg (dissolved in 0.05 M cold sodium citrate buffer, pH 4.5). The normal control mice received only citrate buffer of the same volume.
(§8) During the experiment, all mice were fasted overnight, and blood was collected from the retro-orbital sinus. After dosing for 4 weeks, food was removed from the mice at night, and on the next day, the mice after 12 h of fasting were sacrificed. All of the individual tissues were collected and weighed, and parts of tissues were instantly frozen at −80° C. for later target gene analysis.
(§9) PPARα, PPARγ, and FAS proteins were performed by the liver and white adipose tissue of mice. Skeletal muscle from mice was subjected to GLUT4 expression level analysis, and the total membrane fractions were collected with buffer and determined using a described procedure. The protein contents of GLUT4, phospho-AMPK, and total AMPK were detected by Western blotting and determined as described.

FAS = experiment: Western blotting: FAS in liver and adipose tissue of mice; conditions: STZ-induced diabetic mice, 28 days
Protocol: as §7, §8, §9

GLUT4 [6] = experiment: Western blotting: membrane GLUT4 in skeletal muscle of mice; conditions: STZ-induced diabetic mice, 28 days
Protocol: as §7, §8, §9

PPARγ = experiment: Western blotting: PPARγ in liver and adipose tissue of mice; conditions: STZ-induced diabetic mice, 28 days
Protocol: as §7, §8, §9

AMPK = experiment: Western blotting: phospho-AMPK (Thr172)/total AMPK in skeletal muscle and liver of mice; conditions: STZ-induced diabetic mice, 28 days
Protocol: as §7, §8, §9

Compound: C=C(CC[C@@H](C(=O)O)[C@H]1CC[C@@]2(C)C3=CC[C@H]4C(C)(C)[C@@H](O)CC[C@]4(C)C3=CC[C@]12C)C(C)C [TT, dehydroeburicoic acid]
- protein expressions of GLUT4 vs CON group (GLUT4 [1]; TT 1 μg/mL, 30 min): higher
- protein expressions of GLUT4 vs CON group (GLUT4 [1]; TT 5 μg/mL, 30 min): higher
- protein expressions of GLUT4 vs CON group (GLUT4 [1]; TT 10 μg/mL, 30 min): higher
- protein expressions of GLUT4 vs CON group (GLUT4 [1]; TT 25 μg/mL, 30 min): higher
- levels of phospho-Akt (Ser473)/total Akt proteins vs CON group (Akt; TT 10 μg/mL, 30 min): higher
- levels of phospho-Akt (Ser473)/total Akt proteins vs CON group (Akt; TT 25 μg/mL, 30 min): higher
- Tissue weight: BAT ([2]; TT 10 mg/kg/day oral): 0.296 ± 0.012 wt %
- Tissue weight: EWAT ([2]; TT 10 mg/kg/day oral): 0.778 ± 0.063 wt %
- Tissue weight: MWAT ([2]; TT 10 mg/kg/day oral): 0.562 ± 0.114 wt %
- Tissue weight: RWAT ([2]; TT 10 mg/kg/day oral): 0.122 ± 0.029 wt %
- Tissue weight: Visceral fat ([2]; TT 10 mg/kg/day oral): 0.900 ± 0.082 wt %
- Tissue weight: BAT ([2]; TT 20 mg/kg/day oral): 0.323 ± 0.026 wt %
- Tissue weight: EWAT ([2]; TT 20 mg/kg/day oral): 0.783 ± 0.087 wt %
- Tissue weight: MWAT ([2]; TT 20 mg/kg/day oral): 0.709 ± 0.111 wt %
- Tissue weight: RWAT ([2]; TT 20 mg/kg/day oral): 0.161 ± 0.031 wt %
- Tissue weight: Visceral fat ([2]; TT 20 mg/kg/day oral): 0.944 ± 0.115 wt %
- Tissue weight: EWAT ([2]; TT 40 mg/kg/day oral): 0.715 ± 0.068 wt %
- Tissue weight: MWAT ([2]; TT 40 mg/kg/day oral): 0.720 ± 0.114 wt %
- Tissue weight: RWAT ([2]; TT 40 mg/kg/day oral): 0.119 ± 0.014 wt %
- Tissue weight: Visceral fat ([2]; TT 40 mg/kg/day oral): 0.834 ± 0.082 wt %
- ballooning of hepatocyte (liver histology) ([3]; TT 10 mg/kg/day oral): no ballooning phenomenon
- average area of adipocytes in epididymal WAT ([3]; TT 20 mg/kg/day oral): 5379.9±187.2 μm^2
- ballooning of hepatocyte (liver histology) ([3]; TT 20 mg/kg/day oral): no ballooning phenomenon
- average area of adipocytes in epididymal WAT ([3]; TT 40 mg/kg/day oral): 4910.5±104.9 μm^2
- ballooning of hepatocyte (liver histology) ([3]; TT 40 mg/kg/day oral): no ballooning phenomenon
- mRNA levels of PEPCK in liver (PEPCK; TT 10 mg/kg/day oral): decreased
- mRNA levels of PEPCK in liver (PEPCK; TT 20 mg/kg/day oral): decreased
- mRNA levels of PEPCK in liver (PEPCK; TT 40 mg/kg/day oral): decreased
- mRNA levels of G6 Pase in liver (G6 Pase; TT 10 mg/kg/day oral): decreased
- mRNA levels of G6 Pase in liver (G6 Pase; TT 20 mg/kg/day oral): decreased
- mRNA levels of G6 Pase in liver (G6 Pase; TT 40 mg/kg/day oral): decreased
- mRNA levels of SREBP1c in liver (SREBP1c; TT 10 mg/kg/day oral): decreased
- mRNA levels of SREBP1c in liver (SREBP1c; TT 20 mg/kg/day oral): decreased
- mRNA levels of SREBP1c in liver (SREBP1c; TT 40 mg/kg/day oral): decreased
- mRNA levels of DGAT2 in liver (DGAT2; TT 10 mg/kg/day oral): decreased
- mRNA levels of DGAT2 in liver (DGAT2; TT 20 mg/kg/day oral): decreased
- mRNA levels of DGAT2 in liver (DGAT2; TT 40 mg/kg/day oral): decreased
- mRNA level of PPARα in liver (PPARα [4]; TT 10 mg/kg/day oral): increased
- mRNA level of PPARα in liver (PPARα [4]; TT 20 mg/kg/day oral): increased
- mRNA level of PPARα in liver (PPARα [4]; TT 40 mg/kg/day oral): increased
- CPT1a mRNA levels in liver (CPT1a): enhanced
- SREBP2 mRNA levels in liver (SREBP2): decreased
- expression levels of PPARα in the liver (PPARα [5]; TT 10 mg/kg/day oral): increased
- expression levels of PPARα in the liver (PPARα [5]; TT 20 mg/kg/day oral): increased
- expression levels of PPARα in the liver (PPARα [5]; TT 40 mg/kg/day oral): increased
- expression levels of FAS in adipose tissue (FAS; TT 10 mg/kg/day oral): decreased
- expression levels of FAS in the liver (FAS; TT 10 mg/kg/day oral): decreased
- expression levels of FAS in adipose tissue (FAS; TT 20 mg/kg/day oral): decreased
- expression levels of FAS in the liver (FAS; TT 20 mg/kg/day oral): decreased
- expression levels of FAS in adipose tissue (FAS; TT 40 mg/kg/day oral): decreased
- expression levels of FAS in the liver (FAS; TT 40 mg/kg/day oral): decreased
- membrane expression levels of GLUT4 in skeletal muscle vs STZ group (GLUT4 [6]; TT 10 mg/kg/day oral): greater
- membrane expression levels of GLUT4 in skeletal muscle vs STZ group (GLUT4 [6]; TT 20 mg/kg/day oral): greater
- membrane expression levels of GLUT4 in skeletal muscle vs STZ group (GLUT4 [6]; TT 40 mg/kg/day oral): greater
- expression levels of PPARγ in adipose tissue (PPARγ; TT 10 mg/kg/day oral): decreased
- expression levels of PPARγ in the liver (PPARγ; TT 10 mg/kg/day oral): decreased
- expression levels of PPARγ in adipose tissue (PPARγ; TT 20 mg/kg/day oral): decreased
- expression levels of PPARγ in the liver (PPARγ; TT 20 mg/kg/day oral): decreased
- expression levels of PPARγ in adipose tissue (PPARγ; TT 40 mg/kg/day oral): decreased
- expression levels of PPARγ in the liver (PPARγ; TT 40 mg/kg/day oral): decreased
- expression levels of phospho-AMPK/total AMPK in skeletal muscle (AMPK; TT 10 mg/kg/day oral): increased
- muscular expression levels of phospho-AMPK/total AMPK compared with the STZ group (second sentence) (AMPK; TT 10 mg/kg/day oral): increased
- expression levels of phospho-AMPK/total AMPK in skeletal muscle (AMPK; TT 20 mg/kg/day oral): increased
- muscular expression levels of phospho-AMPK/total AMPK compared with the STZ group (second sentence) (AMPK; TT 20 mg/kg/day oral): increased
- expression levels of phospho-AMPK/total AMPK in skeletal muscle (AMPK; TT 40 mg/kg/day oral): increased
- muscular expression levels of phospho-AMPK/total AMPK compared with the STZ group (second sentence) (AMPK; TT 40 mg/kg/day oral): increased

Compound: insulin [reference compound]
- protein expressions of GLUT4 vs CON group (GLUT4 [1]; 100 nM insulin, 25 min): higher
- levels of phospho-Akt (Ser473)/total Akt proteins vs CON group (Akt; 100 nM insulin, 25 min): higher
